Measurements: patent US20230355690A1, “METHOD OF TREATMENT WITH LACTIC ACID BACTERIA” (UNIVERSITY-INDUSTRY COOPERATION GROUP OF KYUNG HEE …, priority 2017, published 2023)

Columns and labels:
IL-12 = assay: Inflammation reaction inhibiting effect on dendritic cells (LPS): IL-12 expression, ELISA; type: cell-based; details: C57BL/6 mouse bone marrow dendritic cells + LPS; lactic acid bacteria 1×10^4 CFU/ml
Text: (§1) Immune cells were isolated from the bone marrow of a C57BL/6 mouse (male, 20-23 g) by using RPMI 1640 containing 10% FBS, 1% antibiotics, 1% glutamax and 0.1% mercaptoethanol, then treated with RBC lysis buffer, and then washed. Said cells were divided into each well of a 24-well plate, then treated with GM-CSF and IL-4 at a ratio of 1:1000, and then cultured. On a 5th day of culture, the cells were replaced with a new medium, then collected on an 8th day thereof, and then used as dendritic cells. After that, the dendritic cells were plated into a 24-well plate at 0.5×10^6 cells per well, then treated with a test material, i.e., lactic acid bacteria, as well as an inflammation reaction inducer, i.e., lipopolysaccharide (LPS) for 90 minutes or 24 hours, and then supernatant and cells were obtained therefrom. At that time, a treatment concentration of lactic acid bacteria was 1×10^4 CFU/ml. Also, in order to compare the effects of lactic acid bacteria, various prebiotics were used as the test material.
(§2) An expression level of IL-10 and IL-12 was measured from said obtained supernatant by means of an ELISA kit. Also, the expression level of p65 (NF-κB), p-p65 (phosphor-NF-κB) and β-actin was measured from the cells, which have been obtained after being treated with the test material for 90 minutes, by means of the same immunoblotting method as in Example 2.(1) above. The results of testing the inflammation reaction inhibiting effect of lactic acid bacteria on dendritic cells are shown in following tables 8 to 10.

NF-κB (p-p65/p65) [1] = assay: Inflammation reaction inhibiting effect on macrophage (LPS): NF-κB activation, immunoblotting; type: cell-based; details: C57BL/6J mouse peritoneal macrophage + LPS; lactic acid bacteria 1×10^4 CFU/ml
Method: (§3) A six-week old C57BL/6J male mouse (20-23 g) was purchased from Raonbio Co., Ltd. 2 ml of sterilized 4% thioglycolate was intraperitoneally administered into the mouse, which was then anesthetized in 96 hours later. After that, 8 ml of RPMI 1640 medium was intraperitoneally administered to the mouse. In 5 to 10 minutes later, the RPMI medium (including macrophage) was intraperitoneally extracted again from the mouse, then centrifuged on condition of 1000 rpm for 10 minutes, and then washed twice again with the RPMI 1640 medium. The macrophage was plated into a 24-well plate at 0.5×10^6 cells per well, then cultured for 24 hours, and then unattached cells were removed therefrom. The macrophage culture fluid was treated with a test material, i.e., lactic acid bacteria as well as an inflammation reaction inducer, i.e., lipopolysaccharide (LPS) for 90 minutes or 24 hours, and then supernatant and cells were obtained therefrom. At that time, a treatment concentration of lactic acid bacteria was 1×10^4 CFU/ml. Also, in order to compare the effects of lactic acid bacteria, various prebiotics were used as the test material.
An expression level of TNF-α from said obtained supernatant was measured by means of an ELISA kit. Also, the expression level of p65 (NF-κB), p-p65 (phosphor-NF-κB) and β-actin was measured from said obtained cells by means of an immunoblotting method. Particularly, 50 μg of the supernatant was taken and subjected to electrophoresis in SDS 10% (w/v) polyacrylamide gel for one and half an hour. The electrophoresed sample was transferred onto a nitrocellulose paper on condition of 100 V and 400 mA for one hour and 10 minutes. The nitrocellulose paper, onto which the sample was transferred, was subjected to blocking by means of 5% skim milk for 30 minutes, then washed with PBS-Tween three times for five minutes each, and then subjected to reaction overnight with an addition of primary antibodies (Santa Cruz Biotechnology, the U.S.) at a ratio of 1:100. After that, such paper was washed three times for ten minutes each, and subjected to reaction with the addition of secondary antibodies (Santa Cruz Biotechnology, the U.S.) at a ratio of 1:1000 for one hour and 20 minutes. Then, such paper was washed three times for 15 minutes each, then subjected to fluorescent color formation, then developed, and then the intensity of chromophore band was measured.

Th2 cell = assay: Spleen T cell differentiation into Th2 cells, FACS; type: cell-based; details: C56BL/6J mouse spleen CD4 T cells; lactic acid bacteria 1×10^5 CFU per well, four days
Method: (§4) Particularly, a spleen was isolated from a C56BL/6J mouse, then crushed, then suspended in an RPMI 1640 medium containing 10% FCS, and then CD4 T cells were isolated by using a CD4 T cell isolation kit (MiltenyiBiotec, Bergisch Gladbach, Germany). The isolated CD4 T cells were divided into a 12-well plate at 5×10^5 cells per well. After that, the cells were cultured in each well with an addition of anti-CD3, anti-CD28, IL-2 and IL-12 to induce a differentiation of T cells into Th1 cells; with the addition of anti-CD3, anti-CD28, IL-2 and IL-4 to induce the differentiation of T cells into Th2 cells; with the addition of anti-CD3, anti-CD28, IL-6 and TGF-β to induce the differentiation of T cells into Th17 cells; and with the addition of anti-CD3 and anti-CD28 to induce the differentiation of T cells into Treg cells, and a test material, i.e., lactic acid bacteria were inserted thereinto at 1×10^5 CFU per well, and then cultured for four days. Also, in order to compare the effects of lactic acid bacteria, various prebiotics were used as the test material.
(§5) After that, a differentiation potency of the T cells isolated from the spleen into Th1, Th2, Th17 and Treg cells was measured. Particularly, the cells of culture fluid were stained with anti-FOXp3 or anti-IL-17A antibodies, after which a distribution of Th1, Th2, Th17 and Treg cells was analyzed by means of a FACS (fluorescence-activated cell sorting) device (C6 Flow Cytometer® System, San Jose, CA, USA), wherein results thereof are shown in following tables 11 to 13. In the tables 11 to 13 below, the lactic acid bacteria are shown without species names thereof, and are given strain names assigned by the present inventors.

Th17 cell = assay: Spleen T cell differentiation into Th17 cells, FACS; type: cell-based; details: C56BL/6J mouse spleen CD4 T cells; lactic acid bacteria 1×10^5 CFU per well, four days
Method: as §4, §5

IL-10 = assay: Inflammation reaction inhibiting effect on dendritic cells (LPS): IL-10 expression, ELISA; type: cell-based; details: C57BL/6 mouse bone marrow dendritic cells + LPS; lactic acid bacteria 1×10^4 CFU/ml
Text: as §1, §2

Th1 cell = assay: Spleen T cell differentiation into Th1 cells, FACS; type: cell-based; details: C56BL/6J mouse spleen CD4 T cells; lactic acid bacteria 1×10^5 CFU per well, four days
Method: as §4, §5

Treg cell = assay: Spleen T cell differentiation into Treg cells, FACS; type: cell-based; details: C56BL/6J mouse spleen CD4 T cells; lactic acid bacteria 1×10^5 CFU per well, four days
Method: as §4, §5

NF-κB (p-p65/p65) [2] = assay: Inflammation reaction inhibiting effect on dendritic cells (LPS): NF-κB activation, immunoblotting; type: cell-based; details: C57BL/6 mouse bone marrow dendritic cells + LPS, 90 minutes; lactic acid bacteria 1×10^4 CFU/ml
Text: as §1, §2

[3] = system: animal model with induced allergic rhinitis and asthma; assay: Example 6: OVA-induced allergic rhinitis and asthma mice, indicators in serum and BALF (ELISA, FACS); type: in vivo, mouse; details: oral once daily for five days, Dx 1 mg/kg intraperitoneal
Method: Seven week-old BALB/C female mice (21-23 g) were acclimated for one week on condition of a controlled environment with humidity of 50%, temperature of 25° C., and light/dark cycle of 12:12 hours. After that, 20 μg of allergy-inducing ovalbumin (OVA) and 2 mg of aluminum hydroxide (Alum) were suspended into 0.2 ml of phosphate buffered saline (PBS: pH 7.4) and intraperitoneally injected into each of the mice on initial and 14th days of an experiment. Then, 100 μg of the OVA was dissolved in 10 μl of distilled water, and intranasally smeared onto each of the mice to induce allergic rhinitis and asthma therefrom on 26th, 27th and 28th days of the experiment. Meanwhile, a test drug, i.e., lactic acid bacteria were orally administered into each of the mice once daily for a total of five days from 26th to 30th days of the experiment. Also, dexamethasone, which was used as a positive control drug instead of lactic acid bacteria, was intraperitoneally administered at a dose of 1 mg/kg b.w. Further, in case of the mice of a normal group, allergic rhinitis and asthma were not induced therefrom, but only the phosphate buffered saline (PBS: pH 7.4) was orally administered thereinto instead of the OVA and the test drug. Furthermore, in case of the mice of a control group, allergic rhinitis and asthma were induced therefrom, and only the phosphate buffered saline (PBS: pH 7.4) was orally administered thereinto as the test drug. After an end of the experiment, the mice were anesthetized, after which blood, lung tissues and the BALF were collected therefrom. Serum was isolated from the blood collected by means of centrifugation, and used as an assay sample. Indicators related to anti-rhinitis and anti-asthma effects were analyzed from serum, the BALF and lung tissues by using various analysis methods. Each analysis method and indicators analyzed thereby are as follows. • Enzyme-linked immunosorbent assay (ELISA): IL-10, IL-5, IL-6, IL-4, IgE, etc. • FACS (fluorescence-activated cell sorting): Distribution of T cells (Th1: CD4^+/IFN-γ^+; Th2: CD4^+/IL-4^+; Treg: CD4^+/FOXp3^+; Th17: CD4^+/IL-17^+), Distribution of eosinophils (CD11b^+, Siglec-F^+)

TNF-α = assay: Inflammation reaction inhibiting effect on macrophage (LPS): TNF-α expression, ELISA; type: cell-based; details: C57BL/6J mouse peritoneal macrophage + LPS; lactic acid bacteria 1×10^4 CFU/ml
Method: as §3, with “At that time, a treatment concentration of lactic acid bacteria was 1×10^4 CFU/ml. Also, in order to compare the effects of lactic acid bacteria, various prebiotics were used as the test material.” left out
An expression level of TNF-α from said obtained supernatant was measured by means of an ELISA kit. Also, the expression level of p65 (NF-κB), p-p65 (phosphor-NF-κB) and β-actin was measured from said obtained cells by means of an immunoblotting method. […] Then, such paper was washed three times for 15 minutes each, then subjected to fluorescent color formation, then developed, and then the intensity of chromophore band was measured.

Compound	IL-12 expression inhibition rate (IL-12)	NF-κB activation inhibition rate (p-p65/p65) (NF-κB (p-p65/p65) [1])	Differentiation inhibition rate Th2 cell (Th2 cell)	Differentiation inhibition rate Th17 cell (Th17 cell)	IL-10 expression increasing rate (IL-10)	Differentiation inhibition rate Th1 cell (Th1 cell)	Differentiation increasing rate Treg cell (Treg cell)	NF-κB activation inhibition rate (p-p65/p65) (NF-κB (p-p65/p65) [2])	Increasing rate Treg cell ([3]; BALF, FACS)	Inhibition rate Eosinophils ([3]; BALF, FACS)	Inhibition rate Th2 cell ([3]; BALF, FACS)	Increasing rate IL-10 ([3]; BALF)	Inhibition rate IL-4 ([3]; BALF)	Inhibition rate IL-5 ([3]; BALF)	Inhibition rate IL-4 ([3]; serum)	Inhibition rate IL-5 ([3]; serum)	Inhibition rate IgE ([3]; serum)	TNF-α expression inhibition rate (TNF-α)
OC[C@H]1O[C@@H](O[C@@H]2[C@@H](CO)OC(O)(CO)[C@H]2O)[C@H](O)[C@@H](O)[C@H]1O (mixture of isomers) [Lactulose, lactulose]	+ (10-30%)	+ (10-30%)	++ (30-60%)	− (<10%)	− (<10%)	+ (10-30%)	++ (50-100%)	+ (10-30%)										
C[C@@H]1C[C@H]2[C@@H]3CCC4=CC(=O)C=C[C@]4(C)[C@@]3(F)[C@@H](O)C[C@]2(C)[C@@]1(O)C(=O)CO [Dx, dexamethasone]									− (<10%)	+++ (>60%)	+++ (>60%)	++ (50-100%)	+++ (>60%)	+++ (>60%)	+++ (>60%)	++ (30-60%)	+++ (>60%)	
OC[C@H]1O[C@H](O[C@H]2O[C@H](CO)[C@@H](O)[C@H](O)[C@H]2O)[C@H](O)[C@@H](O)[C@@H]1O [Trehalose, trehalose]	+ (10-30%)	+ (10-30%)	+ (10-30%)	+ (10-30%)	+ (10-50%)	+ (10-30%)	+ (10-50%)	+ (10-30%)										
cyclodextrin	+ (10-30%)	+ (10-30%)	+ (10-30%)	++ (30-60%)	− (<10%)	++ (30-60%)	+ (10-50%)	+ (10-30%)										
gelatin	+ (10-30%)	+ (10-30%)	++ (30-60%)	+ (10-30%)	+ (10-50%)	+ (10-30%)	+ (10-50%)	+ (10-30%)										+ (10-30%)
